Results on eight compounds are retold here after ChEMBL document CHEMBL3632565, “The use of porcupine inhibitors to target Wnt-driven cancers” (Bioorg Med Chem Lett, 2015).

The target of test [1] is T1, Protein-serine O-palmitoleoyltransferase porcupine (Homo sapiens, UniProt Q9H237).
T1 sequence (Q9H237 whole entry): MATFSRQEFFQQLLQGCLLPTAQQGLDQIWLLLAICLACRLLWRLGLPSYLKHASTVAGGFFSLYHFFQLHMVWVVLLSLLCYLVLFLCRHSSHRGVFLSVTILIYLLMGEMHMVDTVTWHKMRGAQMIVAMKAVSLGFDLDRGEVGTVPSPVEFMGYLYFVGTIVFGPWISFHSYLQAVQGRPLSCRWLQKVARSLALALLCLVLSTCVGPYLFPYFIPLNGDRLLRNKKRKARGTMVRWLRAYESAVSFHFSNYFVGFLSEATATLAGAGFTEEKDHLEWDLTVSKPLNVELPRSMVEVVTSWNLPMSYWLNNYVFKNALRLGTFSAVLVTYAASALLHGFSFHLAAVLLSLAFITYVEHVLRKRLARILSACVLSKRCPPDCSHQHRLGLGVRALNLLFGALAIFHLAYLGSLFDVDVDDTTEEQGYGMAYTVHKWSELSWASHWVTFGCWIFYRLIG
The test is described as follows: (§1) Inhibition of porcupine in human HEK293 cells assessed as reduction in Wnt secretion by measuring suppression of beta-catenin reporter activity after 24 hrs by STF reporter assay. The test is classed as cell-based. (Reporter assays use an easily measured gene product as a stand-in for the process of interest.)

The target of test [2] is T1, Protein-serine O-palmitoleoyltransferase porcupine. The test is described as follows: Inhibition of porcupine activity (unknown origin) expressed in human HT1080 cells assessed as suppression of Wnt3A-mediated super top flash activity by STF luciferase assay. The class given is cell-based, HT-1080.
The target is the same in test [3]. The test is described as follows: Inhibition of porcupine in human HEK293 cells by STF reporter assay. The test is classed as cell-based.
Test [4] has as its target T2, Protein-serine O-palmitoleoyltransferase porcupine (Homo sapiens) (UniProt Q9H237).
T2 sequence (whole entry): T1 sequence (Q9H237 whole entry)
The test is described as follows: Binding affinity to porcupine (unknown origin).

Test [5] has as its target T2, Protein-serine O-palmitoleoyltransferase porcupine (Homo sapiens). The test is described as §1. The test is classed as cell-based.
In test [6] the target is T3, Protein-serine O-palmitoleoyltransferase porcupine (Mus musculus, UniProt Q9JJJ7).
T3 sequence (Q9JJJ7 whole entry): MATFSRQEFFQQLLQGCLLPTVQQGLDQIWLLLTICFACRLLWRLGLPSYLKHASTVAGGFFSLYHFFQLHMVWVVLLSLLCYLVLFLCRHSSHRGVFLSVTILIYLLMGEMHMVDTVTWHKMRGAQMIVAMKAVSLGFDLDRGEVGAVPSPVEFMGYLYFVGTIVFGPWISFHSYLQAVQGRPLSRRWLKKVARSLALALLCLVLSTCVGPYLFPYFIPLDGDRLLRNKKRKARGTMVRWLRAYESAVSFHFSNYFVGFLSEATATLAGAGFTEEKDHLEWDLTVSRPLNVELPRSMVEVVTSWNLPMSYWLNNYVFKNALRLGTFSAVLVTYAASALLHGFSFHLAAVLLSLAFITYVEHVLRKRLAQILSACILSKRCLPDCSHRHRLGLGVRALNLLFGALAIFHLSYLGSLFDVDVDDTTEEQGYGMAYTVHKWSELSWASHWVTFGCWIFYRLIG
The test is described as follows: Inhibition of mouse porcupine expressed in human HT1080 cells assessed as reduction in beta catenin reporter activity using firefly luciferase substrate STF reporter assay. The test is classed as cell-based, HT-1080.

The nature of test [7]: Inhibition of xenopus porcupine expressed in human HT1080 cells assessed as reduction in beta catenin reporter activity using firefly luciferase substrate STF reporter assay. The test is classed as cell-based. The settings on record: ht-1080.
Test [8] in a line: (§2) Antitumor activity against human HPAF2 cells xenografted in Balb/c mouse assessed as tumor growth inhibition at 100 mg/kg. Conditions: HPAF-II, read-out: TGI. The class given is functional. In general terms: Xenograft models place foreign cells or tissue in a host animal.
A further test concerns HPAF-II. The test is described as §2. The test is classed as functional.

As a reminder, the IC50 is the midpoint of a concentration-inhibition curve.

For `C[C@H](C(=O)Nc1ccc(-c2ccsc2)cc1)n1cnc2c1c(=O)n(C)c(=O)n2C`, the IC50 in test [1] was 5.4 µM.
`COc1ccc(-n2nc(C(=O)NCC(=O)Nc3nc4ccc(OC)cc4s3)c3ccccc3c2=O)cc1`: in test [2], the IC50 worked out at 60 nM.
In turn, `Cn1c(=O)c2c(nc3n2[C@H](CC(=O)Nc2ccc(-c4ccccc4)nn2)CC3)n(C)c1=O` had an IC50 in test [3] of 5 nM.
On to `COc1ccc2nc(NC(=O)CNC(=O)c3ccc(=O)n(-c4ccccc4)c3)sc2c1`, for which the Activity in test [4] is above 25 µM.
Consider `Cc1cc(-c2ccc(CC(=O)Nc3ccc(-c4cccnc4)cc3)cc2)ccn1`, for which the IC50 in test [2] is 0.074 nM.
Consider `Cn1c(=O)c2c(ncn2CC(=O)Nc2ccc(-c3ccccc3)nn2)n(C)c1=O` [ETC-159], for which the inhibition entry in [5] is “Dose-dependent effect”. Moreover, the IC50 is 18.1 nM in [6] and 70 nM in [7]. In addition, the inhibition in vivo at 100 mg/kg in test [8] was 90%. In the test on HPAF-II, the TGI result was “Dose-dependent effect”.
`O=C(CNC(=O)c1nn(-c2ccccc2)c(=O)c2ccccc12)Nc1nccs1` yielded an Activity in [4] above 25 µM.
For the compound `C[C@@H](C(=O)Nc1ccc(-c2ccsc2)cc1)n1cnc2c1c(=O)n(C)c(=O)n2C`, the inhibition result in [5] was “Dose-dependent effect”.
